Each block holds one compound with its values, some of them ahead of it. The source made the active and inactive calls.
Tests used:
[1] = target: T1, Aryl hydrocarbon receptor (Homo sapiens, UniProt P35869); test: Luminescence-based cell-based high throughput dose response assay for activators of the Aryl Hydrocarbon Receptor (AHR). [Related pubchem assays: 2796 (Primary screen (AHR activators in singlicate)), 2845 (Confirmation screen (AHR activators in triplicate)), 434939 (Counterscreen (PXR activators in triplicate)), 2804 (Summary (AHR activators))]; assay type: ADME
T1 sequence (P35869 whole entry): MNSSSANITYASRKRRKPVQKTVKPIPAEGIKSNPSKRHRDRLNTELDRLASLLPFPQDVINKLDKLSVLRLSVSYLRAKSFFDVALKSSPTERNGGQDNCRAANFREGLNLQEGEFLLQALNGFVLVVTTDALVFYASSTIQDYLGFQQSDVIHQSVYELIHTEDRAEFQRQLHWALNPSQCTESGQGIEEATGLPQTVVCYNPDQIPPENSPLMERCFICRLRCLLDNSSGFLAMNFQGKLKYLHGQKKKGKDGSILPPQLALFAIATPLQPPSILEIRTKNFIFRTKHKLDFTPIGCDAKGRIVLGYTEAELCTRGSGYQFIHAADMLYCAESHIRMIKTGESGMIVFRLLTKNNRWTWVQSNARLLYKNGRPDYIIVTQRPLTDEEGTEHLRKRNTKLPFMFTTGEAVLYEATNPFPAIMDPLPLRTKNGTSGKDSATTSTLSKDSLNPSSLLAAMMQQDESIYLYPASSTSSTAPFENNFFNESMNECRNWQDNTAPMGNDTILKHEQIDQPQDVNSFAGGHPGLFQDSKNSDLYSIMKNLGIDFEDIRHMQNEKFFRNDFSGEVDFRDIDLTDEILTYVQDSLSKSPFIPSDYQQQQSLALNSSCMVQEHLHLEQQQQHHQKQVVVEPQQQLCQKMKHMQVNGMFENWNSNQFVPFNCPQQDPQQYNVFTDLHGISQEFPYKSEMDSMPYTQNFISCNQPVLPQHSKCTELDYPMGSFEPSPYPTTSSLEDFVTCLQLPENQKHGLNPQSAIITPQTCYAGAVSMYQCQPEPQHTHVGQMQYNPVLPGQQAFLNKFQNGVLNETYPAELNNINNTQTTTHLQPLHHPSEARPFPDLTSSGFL

[2] = viability loss in THP-1 monocytes – THP-1 cells, cytotoxicity control for Vif-APOBEC3G degradation inhibitor project, dose response (AID 1117359); assay type: functional; settings: THP-1
Protein Tat = Protein Tat (Human immunodeficiency virus type 1 group M subtype B (isolate HXB2)(HIV-1), UniProt P04608); assay type: functional;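 further: tat binding to TAR RNA read out by fluorescence polarization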
[3] = viability inhibitors of stage V gametocytes – luminescence, dose response (AID 1117278); assay type: functional, cell-based;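 further: gametocytes exposed to compound for 24 hours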
[4] = viability loss in human Jurkat cells – cell-based, luminescence, cytotoxicity control for P. falciparum gametocyte viability project, dose response (AID 1117277); assay type: functional;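 further: potency reflects loss of cellular ATP meaning fewer viable cells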
[5] = Dd2 parasite growth inhibition in erythrocytes – SYBR Green, dry powder samples, set 9, dose response (AID 1159568); assay type: functional, cell-based
[6] = blockade of melanocortin 4 receptor signaling – cell-based, plate reader, cherry pick, counter-screen for LGR2 antagonist project, dose response (AID 743444); assay type: functional;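 further: transfected HEK 293 cells stimulated with alpha-MSH peptide; potency of inhibitors of the alpha-MSH evoked signal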
BJ [7] = test: cells; assay type: functional, cell-based; settings: Homo sapiens
[8] = viability loss in HEK293 cells – cell-based, plate reader, cherry-picked samples, cytotoxicity control, dose response (AID 743446); assay type: functional
[9] = target: T2, Oxysterols receptor LXR-beta (Homo sapiens, UniProt P55055); assay type: functional, cell-based;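 further: Cell-based luminescence dose-response assay of agonist activity at LXR, run as a confirmatory counterscreen to a daf-12 agonist screen; HEK293 cells with Gal4-LXR fusion and GAL4-driven luciferase reporter; agonist potency from rising luciferase signal of a Gal4-LXR reporter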
T2 sequence (P55055 whole entry): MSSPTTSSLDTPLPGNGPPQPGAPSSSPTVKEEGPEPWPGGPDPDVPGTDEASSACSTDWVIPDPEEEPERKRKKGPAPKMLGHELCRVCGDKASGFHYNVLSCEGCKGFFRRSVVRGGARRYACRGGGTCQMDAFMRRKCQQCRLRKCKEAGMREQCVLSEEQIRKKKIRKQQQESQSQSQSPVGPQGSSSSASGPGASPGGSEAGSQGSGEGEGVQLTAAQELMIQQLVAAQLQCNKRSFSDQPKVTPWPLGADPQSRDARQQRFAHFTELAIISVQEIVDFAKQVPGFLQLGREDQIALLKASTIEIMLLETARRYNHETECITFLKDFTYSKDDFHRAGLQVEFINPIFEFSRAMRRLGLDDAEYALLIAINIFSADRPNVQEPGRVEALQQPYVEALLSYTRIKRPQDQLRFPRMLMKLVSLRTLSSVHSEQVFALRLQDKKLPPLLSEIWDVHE

[10] = blockers of bursicon-stimulated LGR2 cAMP reporter – cell-based, HEK293, CRE-luciferase reporter, cherry pick, set 2, dose response (AID 743343); assay type: functional;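 further: transfected cells were stimulated with diluted bursicon conditioned medium after compound addition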
[11] = DRD fibroblast viability loss – cell-based, non-viral oncogenic, luminescence, dose response (AID 1934); assay type: functional; settings: Homo sapiens
[12] = toxicity toward HepG2 liver cells – cell-based, plate reader, cherry-pick, antagonist series, cytotoxicity control, dose response (AID 743416); assay type: functional
BJ [13] = test: BJ-TERT fibroblast viability loss – cell-based, RAS-independent, luminescence, dose response (AID 1933); assay type: functional; settings: Homo sapiens
[14] = A549 cell cytotoxicity, dose response, cytotoxicity control, plate reader, cherry-pick, antagonist series (AID 743412); assay type: functional, cell-based
HEK293 = test: EBV LMP1 TES2 canonical NF-kB signalling blockers – cell-based, HEK293, luciferase, cherry-pick, dose response (AID 588343); assay type: functional; settings: Homo sapiens
HT-1080 = test: HT1080 cell viability loss – fluorescence readout (AID 620); assay type: functional, cell-based; settings: Homo sapiens
BJ [15] = test: BJ-TERT-LT-ST fibroblast viability loss – cell-based, RAS-independent, luminescence, dose response (AID 1935); assay type: functional; settings: Homo sapiens;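 further: BJ fibroblasts immortalized with TERT plus LT and ST oncogenes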

Chain of Protein Tat (P04608 whole entry): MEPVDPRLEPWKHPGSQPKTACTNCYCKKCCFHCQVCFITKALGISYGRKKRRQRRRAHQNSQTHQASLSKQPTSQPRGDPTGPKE

EC50 [1]: 1.74 µM (active)
Structure (SMILES): Cc1ccccc1-c1nc(-c2cccnc2)no1

IC50 (Protein Tat): 3.46 µM (inconclusive)
Structure (SMILES): COc1ccc(S(=O)(=O)c2c(N)n(Cc3ccco3)c3nc4ccccc4nc23)cc1
CC50 [2]: > 40 µM (active)

Structure (SMILES): Cc1ccc(-c2csc3ncnc(S)c23)cc1
IC50 [3]: > 109 µM (inactive)
IC50 [4]: 76.2 µM (inactive)

Structure (SMILES): CCC(C(=O)NCc1cccnc1)c1ccccc1 (configuration not stated)
IC50 [3]: > 109 µM (inactive)
IC50 [4]: > 83.2 µM (inactive)

Structure (SMILES): C[C@@H]1CCCCO[C@@H](CN(C)S(=O)(=O)c2ccc(F)cc2)[C@@H](C)CN([C@H](C)CO)C(=O)c2cc(N(C)C)ccc2O1
AC50 [5]: 7.15 µM (active)

Structure (SMILES): O=C(Nc1ccccc1F)N1CCCCN2[C@H](CO)[C@H](c3ccc(/C=C/c4ccccc4)cc3)[C@H]2C1
AC50 [5]: 1.6 µM (active)

Structure (SMILES): COc1ccccc1-c1nc(-c2ccccn2)no1
AC50 [6]: 2.05 µM (active)
EC50 (BJ [7]): 10.4 µM (active)
AC50 [8]: 10.7 µM (active)
EC50 [9]: > 67.5 µM (inactive)
AC50 [10]: 3.35 µM (active)
EC50 [11]: 7.2 µM (active)
AC50 [12]: 19.4 µM (active)
EC50 (BJ [13]): 9.58 µM (active)
AC50 [14]: 10.4 µM (active)
AC50 (HEK293): 1.26 µM (active)
EC50 (HT-1080): > 50 µM (not active)
EC50 (cells): > 67.5 µM (inactive)
EC50 (BJ [15]): > 150 µM (inconclusive)
